# Measured values taken from ChEMBL document CHEMBL1146662, “Novel inhibitors of bacterial protein synthesis: structure-activity relationships for 1,8-naphthyridine derivatives incorporating position 3 and 4 variants” (Bioorg Med Chem Lett, 2004).
# Test system: Escherichia coli
# Assay: Antibacterial activity against Escherichia coli
# Format: functional
row,MIC,Compound
1,> 128 µg/mL,NCCNc1ccnc2nc(N3CCCC3)c(F)cc12

# Test system: Escherichia coli
# Assay: Antibacterial activity against Escherichia coli in presence of permeabilizer and EDTA
# Format: functional
row,MIC,Compound
1,32 µg/mL,NCCNc1ccnc2nc(N3CCCC3)c(F)cc12

# Test system: Haemophilus influenzae
# Assay: Antibacterial activity against Haemophilus influenzae GYR 1435
# Format: functional
row,Compound,MIC
1,C[C@H]1COc2c(N3CCN(C)CC3)c(F)cc3c(=O)c(C(=O)O)cn1c23.C[C@H]1COc2c(N3CCN(C)CC3)c(F)cc3c(=O)c(C(=O)O)cn1c23.O [LEVOFLOXACIN],0.015 µg/mL
2,NC1CCN(c2nc3ncc(C(=O)O)c(O)c3cc2F)C1 (configuration not stated),4 µg/mL
3,O=C(O)c1cnc2nc(N3CCCC3)c(F)cc2c1O,1 µg/mL

# Molecular target: not listed separately
# Assay: Inhibitory concentration against luciferase synthesis in Streptococcus pneumoniae
# Format: functional
row,IC50,Compound
1,> 100 µM,CCOC(=O)c1cnc2nc(N3CCCC3)c(F)cc2c1O
2,> 100 µM,O=C(NO)c1cnc2nc(N3CCCC3)c(F)cc2c1O
3,89 µM,NNc1ccnc2nc(N3CCCC3)c(F)cc12
4,10 µM,NC1CCN(c2nc3ncc(CNCCCc4ccccc4)c(O)c3cc2F)C1 (configuration not stated)
5,39 µM,COCCNc1ccnc2nc(N3CCCC3)c(F)cc12
6,> 100 µM,Oc1c(CNCc2ccccc2)cnc2nc(N3CCCC3)c(F)cc12
7,20 µM,CCOC(=O)c1cnc2nc(N3CCC(N)C3)c(F)cc2c1O (configuration not stated)
8,50 µM,CC(=O)c1cnc2nc(N3CCC(N)C3)c(F)cc2c1O (configuration not stated)
9,> 100 µM,CC(C)CCN(C)C(=O)c1cnc2nc(N3CCC(N)C3)c(F)cc2c1O (configuration not stated)
10,19 µM,CCCNc1ccnc2nc(N3CCCC3)c(F)cc12
11,> 100 µM,CN(C)CCNCc1cnc2nc(N3CCCC3)c(F)cc2c1O
12,10 µM,CCN(CC)CCCNCc1cnc2nc(N3CCC(N)C3)c(F)cc2c1O (configuration not stated)
13,23 µM,NC(=O)c1cnc2nc(N3CCC(N)C3)c(F)cc2c1O (configuration not stated)
14,> 100 µM,Oc1c(CNc2ccccc2)cnc2nc(N3CCCC3)c(F)cc12
15,> 100 µM,O=C(O)CNc1ccnc2nc(N3CCCC3)c(F)cc12
16,25 µM,NC1CCN(c2nc3ncc(CNCc4ccccc4)c(O)c3cc2F)C1 (configuration not stated)
17,25 µM,CC(C)CCNC(=O)c1cnc2nc(N3CCC(N)C3)c(F)cc2c1O (configuration not stated)
18,11 µM,NCCNc1ccnc2nc(N3CCCC3)c(F)cc12
19,> 100 µM,OCc1cnc2nc(N3CCCC3)c(F)cc2c1O
20,91 µM,OCCNc1ccnc2nc(N3CCCC3)c(F)cc12
21,> 100 µM,CC(C)NC(=O)c1cnc2nc(N3CCC(N)C3)c(F)cc2c1O (configuration not stated)
22,> 100 µM,Fc1cc2c(N3CCNCC3)ccnc2nc1N1CCCC1
23,> 100 µM,O=Cc1cnc2nc(N3CCCC3)c(F)cc2c1O
24,18 µM,CN(C)CCN(C)c1ccnc2nc(N3CCCC3)c(F)cc12
25,> 100 µM,CC(Nc1ccnc2nc(N3CCCC3)c(F)cc12)c1ccccc1 (configuration not stated)
26,54 µM,NC1CCN(c2nc3ncc(CNc4ccccc4)c(O)c3cc2F)C1 (configuration not stated)
27,82 µM,NC(=O)CNc1ccnc2nc(N3CCCC3)c(F)cc12
28,> 100 µM,Oc1ccnc2nc(N3CCCC3)c(F)cc12

row,Compound,IC50
1,NC1CCN(c2nc3ncc(C(=O)O)c(O)c3cc2F)C1 (configuration not stated),5 µM
2,O=C(O)c1cnc2nc(N3CCCC3)c(F)cc2c1O,10 µM

# Test system: Streptococcus pneumoniae
# Assay: Antibacterial activity against Quinolone-resistant Streptococcus pneumoniae 7257
# Format: functional
row,Compound,MIC
1,NC1CCN(c2nc3ncc(C(=O)O)c(O)c3cc2F)C1 (configuration not stated),32 µg/mL
2,O=C(O)c1cnc2nc(N3CCCC3)c(F)cc2c1O,4 µg/mL
